Measured values reported in ChEMBL document CHEMBL4138123, “Design, synthesis and biological evaluation of novel pyrazolochalcones as potential modulators of PI3K/Akt/mTOR pathway and inducers of apoptosis in breast cancer cells” (Eur J Med Chem, 2017).

How the values were obtained:
Format in all cases: functional
[1] = test system: U-251; assay: Cytotoxicity against human U251 cells assessed as cell growth at 10 uM after 48 hrs by sulforhodamine B assay relative to control; conditions: U-251, 48 h, read-out: Activity
[2] = test system: HT-29; assay: Cytotoxicity against human HT-29 cells assessed as cell growth at 1 uM after 48 hrs by sulforhodamine B assay relative to control; conditions: HT-29, 48 h, read-out: Activity
[3] = test system: SR; assay: Cytotoxicity against human SR cells assessed as cell growth at 100 uM after 48 hrs by sulforhodamine B assay relative to control; conditions: read-out: Activity
[4] = test system: SNB-19; assay: Cytotoxicity against human SNB19 cells assessed as cell growth at 0.01 uM after 48 hrs by sulforhodamine B assay relative to control; conditions: SNB-19, 48 h, read-out: Activity
[5] = test system: PC-3; assay: Cytotoxicity against human PC3 cells assessed as cell growth at 10 uM after 48 hrs by sulforhodamine B assay relative to control; conditions: PC-3, 48 h, read-out: Activity
[6] = test system: HOP-62; assay: Cytotoxicity against human HOP62 cells assessed as cell growth at 10 uM after 48 hrs by sulforhodamine B assay relative to control; conditions: HOP-62, 48 h, read-out: Activity
[7] = test system: Hs-578T; assay: Cytotoxicity against human Hs 578T cells assessed as growth inhibition after 48 hrs by sulforhodamine B assay
[8] = test system: M14; assay: Cytotoxicity against human M14 cells assessed as cell growth at 1 uM after 48 hrs by sulforhodamine B assay relative to control; conditions: M14, 48 h, read-out: Activity
[9] = test system: HT-29; assay: Cytotoxicity against human HT-29 cells assessed as growth inhibition after 48 hrs by sulforhodamine B assay; conditions: HT-29, 48 h
[10] = test system: SR; assay: Cytotoxicity against human SR cells assessed as cell growth at 1 uM after 48 hrs by sulforhodamine B assay relative to control; conditions: read-out: Activity
[11] = test system: SW-620; assay: Cytotoxicity against human SW620 cells assessed as cell growth at 1 uM after 48 hrs by sulforhodamine B assay relative to control; conditions: SW-620, 48 h, read-out: Activity
[12] = test system: NCI/ADR-RES; assay: Cytotoxicity against human NCI/ADR-RES cells assessed as cell growth at 10 uM after 48 hrs by sulforhodamine B assay relative to control; conditions: read-out: Activity
[13] = test system: PC-3; assay: Cytotoxicity against human PC3 cells assessed as cell growth at 0.01 uM after 48 hrs by sulforhodamine B assay relative to control; conditions: PC-3, 48 h, read-out: Activity
[14] = test system: IGROV-1; assay: Cytotoxicity against human IGROV1 cells assessed as growth inhibition after 48 hrs by sulforhodamine B assay; conditions: IGROV-1, 48 h
[15] = test system: HCT-15; assay: Cytotoxicity against human HCT15 cells assessed as cell growth at 100 uM after 48 hrs by sulforhodamine B assay relative to control; conditions: HCT-15, 48 h, read-out: Activity
[16] = test system: SF-539; assay: Cytotoxicity against human SF539 cells assessed as cell growth at 0.01 uM after 48 hrs by sulforhodamine B assay relative to control; conditions: SF-539, 48 h, read-out: Activity
[17] = test system: NCI-H322M; assay: Cytotoxicity against human NCI-H322M cells assessed as cell growth at 0.1 uM after 48 hrs by sulforhodamine B assay relative to control; conditions: read-out: Activity
[18] = test system: T47D; assay: Cytotoxicity against human T47D cells assessed as cell growth at 0.01 uM after 48 hrs by sulforhodamine B assay relative to control; conditions: read-out: Activity
[19] = test system: SN12C; assay: Cytotoxicity against human SN12C cells assessed as cell growth at 1 uM after 48 hrs by sulforhodamine B assay relative to control; conditions: read-out: Activity
[20] = test system: OVCAR-3; assay: Cytotoxicity against human OVCAR3 cells assessed as growth inhibition after 48 hrs by sulforhodamine B assay; conditions: OVCAR-3, 48 h
[21] = test system: LOX IMVI; assay: Cytotoxicity against human LOXIMVI cells assessed as growth inhibition after 48 hrs by sulforhodamine B assay
[22] = test system: Hs-578T; assay: Cytotoxicity against human Hs 578T cells assessed as cell growth at 1 uM after 48 hrs by sulforhodamine B assay relative to control; conditions: read-out: Activity
[23] = test system: 786-0; assay: Cytotoxicity against human 786-0 cells assessed as cell growth at 1 uM after 48 hrs by sulforhodamine B assay relative to control; conditions: 786-0, 48 h, read-out: Activity
[24] = test system: SNB-19; assay: Cytotoxicity against human SNB19 cells assessed as cell growth at 1 uM after 48 hrs by sulforhodamine B assay relative to control; conditions: SNB-19, 48 h, read-out: Activity
[25] = test system: MDA-MB-468; assay: Cytotoxicity against human MDA-MB-468 cells assessed as cell growth at 10 uM after 48 hrs by sulforhodamine B assay relative to control; conditions: MDA-MB-468, 48 h, read-out: Activity
[26] = test system: OVCAR-5; assay: Cytotoxicity against human OVCAR5 cells assessed as cell growth at 100 uM after 48 hrs by sulforhodamine B assay relative to control; conditions: OVCAR-5, 48 h, read-out: Activity
[27] = test system: HCC 2998; assay: Cytotoxicity against human HCC2998 cells assessed as cell growth at 1 uM after 48 hrs by sulforhodamine B assay relative to control; conditions: HCC 2998, 48 h, read-out: Activity
[28] = test system: HL-60(TB); assay: Cytotoxicity against human HL-60(TB) cells assessed as cell growth at 100 uM after 48 hrs by sulforhodamine B assay relative to control; conditions: HL-60, 48 h, read-out: Activity
[29] = test system: DU-145; assay: Cytotoxicity against human DU145 cells assessed as cell growth at 0.01 uM after 48 hrs by sulforhodamine B assay relative to control; conditions: DU-145, 48 h, read-out: Activity
[30] = test system: HCC 2998; assay: Cytotoxicity against human HCC2998 cells assessed as cell growth at 100 uM after 48 hrs by sulforhodamine B assay relative to control; conditions: HCC 2998, 48 h, read-out: Activity
[31] = test system: SF-268; assay: Cytotoxicity against human SF268 cells assessed as growth inhibition after 48 hrs by sulforhodamine B assay; conditions: SF-268, 48 h
[32] = test system: OVCAR-5; assay: Cytotoxicity against human OVCAR5 cells assessed as cell growth at 0.1 uM after 48 hrs by sulforhodamine B assay relative to control; conditions: OVCAR-5, 48 h, read-out: Activity
[33] = test system: HT-29; assay: Cytotoxicity against human HT-29 cells assessed as cell growth at 10 uM after 48 hrs by sulforhodamine B assay relative to control; conditions: HT-29, 48 h, read-out: Activity
[34] = test system: MCF7; assay: Cytotoxicity against human MCF7 cells assessed as cell growth at 0.1 uM after 48 hrs by sulforhodamine B assay relative to control; conditions: MCF7, 48 h, read-out: Activity
[35] = test system: SK-MEL-28; assay: Cytotoxicity against human SK-MEL-28 cells assessed as cell growth at 100 uM after 48 hrs by sulforhodamine B assay relative to control; conditions: SK-MEL-28, 48 h, read-out: Activity
[36] = test system: RXF 393; assay: Cytotoxicity against human RXF393 cells assessed as cell growth at 10 uM after 48 hrs by sulforhodamine B assay relative to control; conditions: RXF 393, 48 h, read-out: Activity
[37] = test system: NCI-H522; assay: Cytotoxicity against human NCI-H522 cells assessed as cell growth at 0.1 uM after 48 hrs by sulforhodamine B assay relative to control; conditions: NCI-H522, 48 h, read-out: Activity

## COc1cc(-c2cc(/C=C/C(=O)c3ccc(N)cc3)[nH]n2)cc(OC)c1OC
[1]
  growth at 10 µM: -96%
[2]
  growth at 1 µM: 82%
[3]
  growth at 100 µM: -13%
[4]
  growth at 0.01 µM: 96%
[5]
  growth at 10 µM: 1%
[6]
  growth at 10 µM: -59%
[7]
  GI50: 4.33 µM
  LC50: > 100 µM
  TGI: > 100 µM
[8]
  growth at 1 µM: 90%
[9]
  GI50: 1.85 µM
  LC50: > 100 µM
  TGI: 4.82 µM
[10]
  growth at 1 µM: 14%
[11]
  growth at 1 µM: 82%
[12]
  growth at 10 µM: 15%
[13]
  growth at 0.01 µM: 97%
[14]
  GI50: 3.2 µM
  LC50: > 100 µM
  TGI: 10.5 µM
[15]
  growth at 100 µM: -17%
[16]
  growth at 0.01 µM: 92%
[17]
  growth at 0.1 µM: 103%
[18]
  growth at 0.01 µM: 83%
[19]
  growth at 1 µM: 85%
[20]
  GI50: 1.57 µM
  LC50: 7.26 µM
  TGI: 3.37 µM
[21]
  GI50: 1.06 µM
  LC50: 6.72 µM
  TGI: 3.28 µM
[22]
  growth at 1 µM: 87%
[23]
  growth at 1 µM: 81%
[24]
  growth at 1 µM: 79%
[25]
  growth at 10 µM: -58%
[26]
  growth at 100 µM: -66%
[27]
  growth at 1 µM: 110%
[28]
  growth at 100 µM: -12%
[29]
  growth at 0.01 µM: 107%
[30]
  growth at 100 µM: -91%
[31]
  GI50: 1.69 µM
  TGI: 3.93 µM
[31]; read-out: LC50 (the source's name)
  CC50: 9.16 µM
[32]
  growth at 0.1 µM: 103%
[33]
  growth at 10 µM: -38%
[34]
  growth at 0.1 µM: 91%
[35]
  growth at 100 µM: -83%
[36]
  growth at 10 µM: -64%
[37]
  growth at 0.1 µM: 92%
